Assay results reported in patent US20240358727A1, “MICROSCALE THERMOPHORESIS TO EVALUATE CHANNEL LIPID INTERACTIONS AND METHODS OF TREATING NAV CHANNELS RELATED DISEASES” (Northeastern University, priority 2023, published 2024).
“Also recorded” adds a separate entry of the source.

Biological target: T1, Nav1.5 (Homo sapiens, UniProt Q14524)
T1 construct: expressed in transfected cells
Experiment: Whole-cell patch clamp of Nav1.5 stable cells with optogenetic PI-phosphatases and diC8PI(4,5)P2 in the pipette
Assay type: cell-based
Settings: for left shift in the I-V relationship / shift in V½SSI / shift in V½act / V½SSI / V½act: 200 μM diC8PI(4,5)P2; for current density: 200 μM diC8PI(4,5)P2, −55 mV; for τinact / ILATE: diC8PI(4,5)P2; for ILATE: % of Ipeak
Procedure: Nav1.5 channels were studied with Navβ1 (SCNIB, isoform b; NM_001037) in pRAT, a CMV driven vector. N-terminal CRY2-tagged pseudojanin in pMaX(+) vector was generated by Genscript (Piscataway, NY). Purified diC8PI(4,5)P2 was purchased from Echelon Biosciences.
HEK293-T cells were purchased from American Type Culture Collection (ATCC, catalog no. CRL-3216). The cells were cultured in 60-mm dishes in Dulbecco's Modified Eagle Medium (DMEM) (Sigma-Aldrich) that was supplemented with a combination of 100 units/ml of penicillin, 100 μg/ml of streptomycin and 10% Fetal Bovine Serum (FBS). Stable cells were cultured in previously mentioned DMEM, penicillin, streptomycin, and FBS medium with addition of 2 μg/ml puromycin, 5 μg/ml blasticidin, 200 μg/ml geneticin (G418). Both cell lines were incubated at 5% CO2 at 37° C. 24 hours before transfection cells from either cell lines were seeded on glass coverslips in 35-mm dishes. Both cell lines were transfected in OptiMEM using polyethyleneimine (PEI) at a 1 μg of DNA: 4 μL PEI to 1 μg of DNA: 6 μL PEI ratio for 2-4 hours. HEK293-T cells were transfected with 1.5 μg of channel DNA and 1 μg of the beta subunit alone and alongside light-activated constructs. Stable cells were transfected with 1p g of the beta subunit alone and alongside light-activated constructs. Electrophysiology recordings were performed within 24-48 hours after transfection at room temperature.
Both the HEK293-T, and Nav1.5 stable cells were studied under whole-cell patch clamp. Sodium currents were recorded using the Tecella Pico-2 amplifier (Tecella) and WinWCP software (University of Strathclyde) at a low pass (Bessel) filter of 9 kHz and sampled at 50 kHz frequencies. The borosilicate glass (Clark Kent) patch pipettes were pulled to a resistance of 2-4 MQ using the vertical puller (Narishige) when filled with internal solution. The internal solution contained (in mM): 60 CsCl, 80 CsF, 2 MgCl2·6H2O, 10 EGTA, 5 HEPES, 5 Na2ATP, pH 7.4 with CsOH. Cells were perfused through a multichannel gravity-driven perfusion manifold (Warner) with an extracellular solution containing (in mM): 130 NaCl, 5 CsCl, 1.2 MgCl2·6H2O, 1.5 CaCl2), 8 Glucose, 10 HEPES. Cells with a series resistance less than 15 MQ were studied.
Current-voltage relationships were evoked by a 250-ms test pulse between −80 mV to 35 mV, in 5 mV increments. Steady-state inactivation was studied by holding cells at −120 mV and then comparing currents that were evoked by a 50 ms test pulse between −120 mV and −20 mV to those evoked by a 500 ms pre-pulse to 30 mV, in 10 mV increments. Normalized peak currents were then plotted against pre-pulse potential (mV). To determine voltage-dependence, the data was normalized and plotted against the driving force and fitted to a Boltzmann function, I=Imax(1+exp[V−V1/2/k]), where Imax is maximum current and k is the slope factor to generate normalized conductance-voltage (G-V) relationship. The ILATE was evoked by a single test pulse between −90 mV and −20 mV. ILATE was calculated from the last 10 ms of this 250 ms test pulse. From this recording protocol, the time constant for inactivation (T) was determined from a mono-exponential fit of normalized current amplitude using It=Imax+A [e^−t/τ], A is amplitude and t is time. All whole-cell currents were normalized to the capacitance of cell.
Experiments were set up similar to those in Gada et al (2023). Optogenetic studies were conducted simultaneously alongside patch-clamp. Here the photoactivation of cells was conducted in the epifluorescence-mode to utilize continuous excitation from a broad-spectrum LED (Excelitas) through a 448/20 nm filter (Chroma), via a 20× objective lens (Olympus). A photometer (ThorLabs) was used to measure the light output which measured at 50 mW/cm^2. […]

[1] = 200 μM diC8PI(4,5)P2 in pipette
[2] = CRY2-5POCRL + CRY2-Sac2, BL vs control
[3] = CRY2-5POCRL + CRY2-Sac2, control (before BL)
[4] = CRY2-5POCRL, control (before BL)
[5] = CRY2-5POCRL, diC8PI(4,5)P2 enriched vs BL without diC8PI(4,5)P2

T1 sequence (Q14524 whole entry): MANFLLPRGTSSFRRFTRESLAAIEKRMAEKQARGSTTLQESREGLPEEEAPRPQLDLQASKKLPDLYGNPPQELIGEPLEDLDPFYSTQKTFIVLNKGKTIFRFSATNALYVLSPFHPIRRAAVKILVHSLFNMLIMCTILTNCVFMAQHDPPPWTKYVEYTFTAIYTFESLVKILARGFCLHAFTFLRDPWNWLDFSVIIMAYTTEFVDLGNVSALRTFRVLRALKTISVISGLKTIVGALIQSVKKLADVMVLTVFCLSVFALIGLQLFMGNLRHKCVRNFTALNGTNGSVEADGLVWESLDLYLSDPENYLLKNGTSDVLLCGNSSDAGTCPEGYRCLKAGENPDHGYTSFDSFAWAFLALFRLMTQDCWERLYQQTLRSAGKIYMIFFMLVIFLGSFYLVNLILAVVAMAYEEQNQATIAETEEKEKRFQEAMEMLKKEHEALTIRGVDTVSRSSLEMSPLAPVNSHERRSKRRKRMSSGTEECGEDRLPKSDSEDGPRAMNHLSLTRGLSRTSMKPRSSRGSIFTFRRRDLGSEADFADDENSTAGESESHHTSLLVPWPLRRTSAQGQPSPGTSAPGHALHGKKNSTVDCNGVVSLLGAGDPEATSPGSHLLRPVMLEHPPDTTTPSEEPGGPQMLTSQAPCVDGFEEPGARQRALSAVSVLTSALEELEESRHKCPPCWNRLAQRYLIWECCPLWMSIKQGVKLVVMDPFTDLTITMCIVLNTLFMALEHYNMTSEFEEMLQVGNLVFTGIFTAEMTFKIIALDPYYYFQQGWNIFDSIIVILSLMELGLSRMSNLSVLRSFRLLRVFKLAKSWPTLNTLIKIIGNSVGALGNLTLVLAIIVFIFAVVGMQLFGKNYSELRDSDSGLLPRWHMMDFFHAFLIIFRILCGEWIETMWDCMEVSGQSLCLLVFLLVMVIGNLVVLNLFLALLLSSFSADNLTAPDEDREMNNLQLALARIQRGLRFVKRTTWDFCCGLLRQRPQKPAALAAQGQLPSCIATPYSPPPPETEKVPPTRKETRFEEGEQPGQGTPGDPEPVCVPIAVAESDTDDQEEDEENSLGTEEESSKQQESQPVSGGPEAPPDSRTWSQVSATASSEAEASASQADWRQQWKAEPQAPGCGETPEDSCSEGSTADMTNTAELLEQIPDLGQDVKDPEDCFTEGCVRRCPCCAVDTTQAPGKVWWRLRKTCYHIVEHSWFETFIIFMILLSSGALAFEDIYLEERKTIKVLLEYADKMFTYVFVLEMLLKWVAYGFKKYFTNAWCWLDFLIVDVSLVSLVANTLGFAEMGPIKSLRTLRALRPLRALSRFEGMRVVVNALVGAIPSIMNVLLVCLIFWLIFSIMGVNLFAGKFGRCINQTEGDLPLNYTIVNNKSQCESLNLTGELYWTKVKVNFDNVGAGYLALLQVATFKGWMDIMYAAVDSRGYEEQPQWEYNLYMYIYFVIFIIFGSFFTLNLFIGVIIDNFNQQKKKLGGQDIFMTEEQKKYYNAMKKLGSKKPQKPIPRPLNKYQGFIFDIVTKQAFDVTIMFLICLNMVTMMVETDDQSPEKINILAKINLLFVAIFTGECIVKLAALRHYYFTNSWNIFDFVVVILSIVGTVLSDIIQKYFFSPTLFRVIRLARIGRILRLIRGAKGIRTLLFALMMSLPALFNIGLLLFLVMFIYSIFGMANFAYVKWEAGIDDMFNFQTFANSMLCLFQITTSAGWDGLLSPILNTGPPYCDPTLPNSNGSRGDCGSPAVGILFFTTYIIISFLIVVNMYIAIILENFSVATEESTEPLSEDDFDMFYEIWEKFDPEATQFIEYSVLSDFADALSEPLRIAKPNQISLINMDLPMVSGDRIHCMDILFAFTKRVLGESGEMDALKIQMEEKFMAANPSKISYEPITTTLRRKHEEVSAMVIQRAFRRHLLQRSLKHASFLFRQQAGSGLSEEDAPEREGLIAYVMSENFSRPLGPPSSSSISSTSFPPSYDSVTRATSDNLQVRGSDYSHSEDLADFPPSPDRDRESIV

CCCCCCCC(=O)OC[C@H](COP(=O)(O)O[C@@H]1[C@H](O)[C@H](O)[C@@H](OP(=O)(O)O)[C@H](OP(=O)(O)O)[C@H]1O)OC(=O)CCCCCCC [diC8-PIP2]
effect on CRY2-5POCRL (CRY2-5P) dephosphorylation effects [1]: partially opposes; also recorded: partially reverses
effect on CRY2-5POCRL/Sac2 dephosphorylation effects (activation, SSI) [1]: partially opposes
left shift in the I-V relationship (CRY2-5POCRL + CRY2-Sac2, BL vs before BL): −1.87 mV
shift in V½SSI [2]: −9.1±1.62 mV
shift in V½act [2]: −1.87±1.52 mV
V½SSI (CRY2-5POCRL + CRY2-Sac2, BL): −80.48±1.75 mV
V½act (CRY2-5POCRL + CRY2-Sac2, BL): −53.17±1.49 mV
current density (CRY2-5POCRL + CRY2-Sac2, BL): −203.83±59.93 pA/pF
V½SSI [3]: −71.75±1.84 mV
V½act [3]: −51.30±1.7 mV
effect on changes in window current (CRY2-5POCRL + CRY2-Sac2, diC8PI(4,5)P2): does not oppose
difference in V½act (CRY2-5POCRL + CRY2-Sac2, diC8PI(4,5)P2 enriched before BL vs BL without diC8PI(4,5)P2): −6.518 mV
difference in V½SSI (CRY2-5POCRL + CRY2-Sac2, diC8PI(4,5)P2 enriched vs BL without diC8PI(4,5)P2): −8.73±2.61
current density (CRY2-5POCRL + CRY2-Sac2, without BL): −80.94±28.21 pA/pF
shift in V½SSI (CRY2-5POCRL, BL vs control): −0.9383±2.01 mV
shift in V½act (CRY2-5POCRL, BL vs control): −8.61±0.77 mV
V½SSI (CRY2-5POCRL, BL): −72.13±1.53 mV
V½act (CRY2-5POCRL, BL): −55.90±2.00 mV
left shift in the I-V relationship (CRY2-5POCRL, BL): ~8.61 mV
τinact (CRY2-5POCRL, BL): 1.68 ± 0.15 ms
ILATE (CRY2-5POCRL, BL): 0.64±0.25%
V½SSI [4]: −73.07±1.54 mV
V½act [4]: −47.29±1.77 mV
τinact [4]: 1.24 ± 0.3 ms
ILATE [4]: 0.08±0.025%
difference in V½act (CRY2-5POCRL, diC8PI(4,5)P2 enriched before BL vs BL without diC8PI(4,5)P2): ~6.768±2.420 mV
difference in ILATE [5]: 2.139±0.5794
difference in V½SSI [5]: −6.518 mV
difference in τinact [5]: 1.345 ± 0.3918 ms
effect on CRY2-PJ dephosphorylation effect on voltage-dependence of inactivation (SSI) (diC8PI(4,5)P2 enriched vs depleted): opposed; also recorded: partially opposes
effect on CRY2-PJ dephosphorylation effects on Nav1.5 (diC8PI(4,5)P2 in pipette): did not oppose; also recorded: does not oppose
